Reference: US12630594B2, “Allergy antigen and epitope for same” (HOYU CO., LTD., priority 2017, dated 2026)

Assays:
[1] = tested on: IgE antibodies from patients; test: Epitope mapping (2): overlapping 10-amino-acid peptide fragments shifted by one amino acid; type: binding, human; conditions: positions numbered within the 15-amino-acid epitope; serum of 5 patients
Description: On the basis of the sequences (SEQ ID NOs: 150-154 for alpha-actinin-3, SEQ ID NO: 155 for EEF1A2 binding protein-like, SEQ ID NOs: 156 and 157 for alpha-1,4-glucan phosphorylase, SEQ ID NOs: 158 and 159 for elongation factor 2, SEQ ID NOs: 160-162 for heat shock cognate 70 kDa protein, SEQ ID NOs: 163-167 for serotransferrin, SEQ ID NOs: 168-171 for myosin binding protein H-like, SEQ ID NOs: 172-174 for desmin (fragment), SEQ ID NOs: 175-178 for capping protein (actin filament) muscle Z-line beta, SEQ ID NOs: 179-185 for myosin heavy chain, fast skeletal muscle-like, SEQ ID NO: 186 for glycogen phosphorylase, muscle form-like, SEQ ID NOs: 187-196 for myosin-binding protein C, fast-type-like, SEQ ID NO: 197 for ATP synthase subunit beta, mitochondrial, SEQ ID NO: 198 for L-lactate dehydrogenase A chain-like, SEQ ID NO: 199 for aldolase, SEQ ID NOs: 200-202 for β-enolase, and SEQ ID NOs: 203 and 204 for glyceraldehyde-3-phosphate dehydrogenase) of the peptides bound to an IgE antibody in serum in a patient-specific manner as described above in (A), a library of overlapping peptide fragments (length: 10 amino acids) was prepared using the sequences of the peptides and sequences in which sequences were added so as to flank each peptide in the amino acid sequences of allergen components (SEQ ID NO: 2 for alpha-actinin-3, SEQ ID NO: 5 for EEF1A2 binding protein-like, SEQ ID NO: 10 for alpha-1,4-glucan phosphorylase, SEQ ID NO: 19 for elongation factor 2, SEQ ID NO: 26 for heat shock cognate 70 kDa protein, SEQ ID NO: 33 for serotransferrin, SEQ ID NO: 43 for myosin binding protein H-like, SEQ ID NO: 56 for desmin (fragment), SEQ ID NO: 61 for capping protein (actin filament) muscle Z-line beta, SEQ ID NO: 70 for myosin heavy chain, fast skeletal muscle-like, SEQ ID NO: 110 for glycogen phosphorylase, muscle form-like, SEQ ID NO: 121 for myosin-binding protein C, fast-type-like, SEQ ID NO: 138 for ATP synthase subunit beta, mitochondrial, SEQ ID NO: 144 for L-lactate dehydrogenase A chain-like, SEQ ID NO: 445 for aldolase, SEQ ID NO: 446 for β-enolase, and SEQ ID NO: 447 for glyceraldehyde-3-phosphate dehydrogenase) comprising the sequences of the peptide. Epitope mapping was carried out using the library.
The peptides to be synthesized were shifted by one amino acid.
The library was prepared by the same procedure as described above in (A), and the presence or absence of binding of an IgE antibody present in the serum of a patient and a non-fish-allergic subject to each peptide fragment was measured by the same technique as described above. Amino acids at positions where the binding activity against IgE antibodies from patients were lost or decreased in the peptides shifted by one amino acid while binding activity against IgE antibodies from non-fish-allergic subjects arose were confirmed as amino acids adversely affecting the specificity of binding to IgE antibodies.
Chemiluminescence intensity in images obtained by measurement was converted into a numeric value in the same manner as in (A) using ImageQuant TL (GE Healthcare). […]

[2] = tested on: IgE antibodies from patients; test: Epitope mapping (3): alanine scanning; set-up: species or system human; conditions: positions numbered within the region important for binding; no influence on IgE binding when substituted by alanine
Experimental: From the amino acid sequences identified above in (A), a library of peptide fragments in which N-terminal amino acids were substituted one by one by alanine according to a technique called alanine scanning (Non Patent Literature 5) was prepared by the same technique as described above. The presence or absence of binding of an IgE antibody present in the serum of a patient and a non-fish-allergic subject to each peptide fragment was measured by the same technique as described above. Amino acids at positions where the binding activity against IgE antibodies from patients were lost or decreased by the substitution by alanine while binding activity against IgE antibodies from non-fish-allergic subjects arose were confirmed as amino acids important for exertion of original antigenicity, or amino acids influencing exertion of original antigenicity.
Chemiluminescence intensity in images obtained by measurement was converted into a numeric value in the same manner as in (A) using ImageQuant TL (GE Healthcare). When values obtained using the sequences (SEQ ID NOs: 150-204) that were of the peptides confirmed to bind to an IgE antibody in a patient specific manner from the images obtained from results about the serum of 5 patients and served as the basis of overlapping were defined as 100%, it was determined that: a peptide having a value of less than 20% had no binding activity against IgE antibodies; a peptide having a value of 20% or more and less than 50% had binding activity, albeit poor, against IgE antibodies; a peptide having a value of 50% or more and less than 70% had binding activity, albeit somewhat poor, against IgE antibodies; a peptide having a value of 70% or more and less than 90% had equivalent binding activity against IgE antibodies; and a peptide having a value of 90% or more had almost equivalent or good binding activity against IgE antibodies and was thus a peptide had remaining binding activity against IgE antibodies.
By this analysis, common sequences important for exertion of original antigenicity were found in regions important for binding to IgE antibodies from patients, in the sequences serving as the basis of overlapping.

[3] = tested on: IgE antibody present in the serum of a fish-allergic patient; test: Epitope mapping (1): peptide array of overlapping 15-amino-acid peptides; type: binding, human; conditions: average of 5 patients / average of 4 non-fish-allergic subjects at least 1.5, Mann-Whitney U test
Experimental: Epitope mapping was carried out using a library of overlapping peptides (length: 15 amino acids) corresponding to the amino acid sequences identified as allergy components of fish and the amino acid sequences of known fish allergy antigens aldolase, β-enolase, and glyceraldehyde-3-phosphate dehydrogenase (Non Patent Literature 2-4). Specifically, the library of overlapping peptides was prepared on the basis of the amino acid sequences of SEQ ID NO: 2 for alpha-actinin-3, SEQ ID NO: 5 for EEF1A2 binding protein-like, SEQ ID NO: 10 for alpha-1,4-glucan phosphorylase, SEQ ID NO: 19 for elongation factor 2, SEQ ID NO: 26 for heat shock cognate 70 kDa protein, SEQ ID NO: 33 for serotransferrin, SEQ ID NO: 43 for myosin binding protein H-like, SEQ ID NO: 56 for desmin (fragment), SEQ ID NO: 61 for capping protein (actin filament) muscle Z-line beta, SEQ ID NO: 70 for myosin heavy chain, fast skeletal muscle-like, SEQ ID NO: 110 for glycogen phosphorylase, muscle form-like, SEQ ID NO: 121 for myosin-binding protein C, fast-type-like, SEQ ID NO: 138 for ATP synthase subunit beta, mitochondrial, SEQ ID NO: 144 for L-lactate dehydrogenase A chain-like, SEQ ID NO: 445 for aldolase, SEQ ID NO: 446 for β-enolase, and SEQ ID NO: 447 for glyceraldehyde-3-phosphate dehydrogenase.
The peptides to be synthesized were shifted by 10 amino acids.
For preparation of peptide arrays, the Intavis CelluSpots™ technique was used. Specifically, the peptide arrays were prepared by the following procedure: (1) synthesizing peptides of interest on amino-modified cellulose disks using an automated chemical synthesis apparatus (Intavis MultiPep RS), (2) dissolving the amino-modified cellulose disks to obtain a cellulose-bound peptide solution, and (3) spotting the cellulose-bound peptides onto coated glass slides. The details of each procedure are as described below.
The presence or absence of binding, to each peptide fragment, of an IgE antibody present in the serum of a fish-allergic patient was measured through antigen-antibody reaction using the peptide arrays. The measurement was carried out according to the following procedure. • (1) The peptides were shaken at room temperature for 1 hour in PBST. • (2) The peptide arrays were shaken at overnight at room temperature in 5% serum/PBST. • (3) The peptide arrays were washed with a PBST solution (a PBS buffer containing 0.1% Tween 20 nonionic surfactant) for 5 minutes (×3). • (4) Anti-human IgE antibody-HRP(1:5,000, PBST) was added thereto, and the peptide arrays were shaken at room temperature for 1 hour. • (5) The peptide arrays were washed with a PBST solution for 5 minutes (×3). • (6) Pierce ECL Plus Western Blotting Substrate (produced by Thermo Fisher Scientific) was added thereto, and the peptide arrays were shaken at room temperature for 5 minutes. • (7) The chemiluminescence of the peptides treated as described above in (1) to • (6) was measured using Amersham Imager 600.
Chemiluminescence intensity in images obtained by the measurement described above in (7) was converted into a numeric value using ImageQuant TL (GE Healthcare). The average value of numeric values determined from images obtained from results about the serum of 5 patients was divided by the average value of numeric values determined from images obtained from results about the serum of 4 non-fish-allergic subjects. It was determined that a peptide having a calculated value (average value of the patient group/average value of the non-fish-allergic subject group) of at least 1.5 and a significant difference of […] in the Mann-Whitney U test was a peptide bound to an IgE antibody in a patient-specific manner.

Substance	Positions of amino acids of region important for binding in epitope [1]	Non-binding-influencing amino acid in region important for binding [2]	IgE antibody binding in a patient-specific manner [3]
51 (DGDKSRYLGKGTVKA; epitope) [compound 51]	6-13	7	
52 (YRHIADLAGHKDVIL; epitope) [compound 52]		2-4	
30 (TVTALDFREGKEFKD; epitope) [compound 30]		2-4	
32 (LYPPPPPEDKAKKGG; epitope) [compound 32]	1-10		
27 (IHVVEVQEKSSGRTA; epitope) [compound 27]	2-12		
46 (RQKYIRRVGDKINLT; epitope) [compound 46]	2-13		
26 (VILIKKAGDGSKKIK; epitope) [compound 26]		3-5	
34 (EEDKVNTLTKAKTKL; epitope) [compound 34]	5-14		
38 (LKATKKKKKPVVDEE; epitope) [compound 38]		2	
SEQ ID NO: 207: region important for binding, amino acids at positions 1-10 of epitope 1 (SEQ ID NO: 150) (SGERLPKPDK; epitope)		2-6	
13 (KLSDEDKQKILDKCN; epitope) [compound 13]		4	
4 (TKLRLSNRPAFMPSE; epitope) [compound 4]	1-15		
19 (RYVKKVGEKINIVIP; epitope) [compound 19]		3	
15 (YSGAFQCLKDGAGEV; epitope) [compound 15]	8-15		
12 (EAEQYKAADDVQRDK; heat shock cognate 70 kDa protein epitope) [compound 12]		2	
48 (NVAKAHGGYSVFAGV; epitope) [compound 48]			bind in a patient-specific manner
21 (KEVIDYKPTPFVEHD; epitope) [compound 21]	2-15		
10 (GKSTLTDSLVSKAGI; epitope) [compound 10]			bind in a patient-specific manner
SEQ ID NO: 210: region important for binding, amino acids at positions 9-14 of epitope 1 (SEQ ID NO: 150) (DKGKMR; epitope)		3-5	
18 (YYGYNGAFRCLVEDA; epitope) [compound 18]		2	
45 (GAPVTGYLMERKKKG; epitope) [compound 45]	3-7		
50 (SYGRALQASALKAWG; epitope) [compound 50]			bind in a patient-specific manner
40 (TDLRGLLKRLKKMKT; epitope) [compound 40]	2-8		
3 (SCFYHAFAGAEQAET; epitope) [compound 3]	1-15	2	
31 (YNSMEQLCINFTNEK; epitope) [compound 31]	7-15	2	
7 (GGYIQAVLDRNLCEN; epitope) [compound 7]			bind in a patient-specific manner
53 (NLKNVIKAKYGKDAT; epitope) [compound 53]	6-15	3-6	
25 (DVGRSAEVHSKKTVL; epitope) [compound 25]	1-7		
29 (DNQKYRQLQKELSQV; epitope) [compound 29]	3-14		
44 (YTFIPDGYALSLSAK; epitope) [compound 44]		2-4	
